Measurements reported in PMC3774597 (Journal of biomolecular screening, 2012).
One block for each molecule: values may come before it.

Assays:
[1] = target: T1, isoleucyl-tRNA synthetase (IleRS) (Trypanosoma brucei, UniProt Q38A55); test: malachite green aminoacylation assay coupled to pyrophosphatase, dose response; assay type: biochemical
T1 sequence (Q38A55 67-1143): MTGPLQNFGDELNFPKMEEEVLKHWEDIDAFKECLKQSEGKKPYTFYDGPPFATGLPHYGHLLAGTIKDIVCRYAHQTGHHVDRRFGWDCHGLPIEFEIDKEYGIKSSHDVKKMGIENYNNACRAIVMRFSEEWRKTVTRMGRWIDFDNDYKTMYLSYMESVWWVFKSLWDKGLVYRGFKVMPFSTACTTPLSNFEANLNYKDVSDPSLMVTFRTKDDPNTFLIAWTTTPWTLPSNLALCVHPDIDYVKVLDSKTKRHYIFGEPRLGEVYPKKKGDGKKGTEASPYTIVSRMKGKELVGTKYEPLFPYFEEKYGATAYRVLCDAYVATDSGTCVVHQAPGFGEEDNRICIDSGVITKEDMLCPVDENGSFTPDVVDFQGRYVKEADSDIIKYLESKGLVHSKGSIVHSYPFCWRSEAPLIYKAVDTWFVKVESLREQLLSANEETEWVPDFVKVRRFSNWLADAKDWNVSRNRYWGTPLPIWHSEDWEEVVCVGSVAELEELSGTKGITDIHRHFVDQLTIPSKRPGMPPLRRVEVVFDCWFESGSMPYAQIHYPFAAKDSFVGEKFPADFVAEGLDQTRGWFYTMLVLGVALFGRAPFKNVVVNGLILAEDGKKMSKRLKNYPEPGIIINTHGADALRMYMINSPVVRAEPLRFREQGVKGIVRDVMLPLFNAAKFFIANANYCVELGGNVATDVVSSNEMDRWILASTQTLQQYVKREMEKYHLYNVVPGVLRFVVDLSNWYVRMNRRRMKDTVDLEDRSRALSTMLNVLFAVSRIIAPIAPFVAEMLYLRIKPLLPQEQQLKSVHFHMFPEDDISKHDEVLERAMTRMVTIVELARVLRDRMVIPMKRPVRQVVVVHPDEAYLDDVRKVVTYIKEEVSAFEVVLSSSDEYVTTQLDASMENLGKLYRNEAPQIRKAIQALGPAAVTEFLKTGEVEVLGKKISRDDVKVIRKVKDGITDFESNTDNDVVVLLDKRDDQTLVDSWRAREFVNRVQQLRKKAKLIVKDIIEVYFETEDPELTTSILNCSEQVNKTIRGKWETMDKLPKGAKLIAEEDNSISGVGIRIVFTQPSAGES

[2] = substrate: CC[C@H](C)[C@H](N)C(=O)O; test: Michaelis-Menten kinetics; assay type: biochemical, Trypanosoma brucei

- IC50 [1]: 600 nM
Molecule: CC(C)(C)[Si](C)(C)OCC1OC(n2cnc3c(N)ncnc32)C(O)C1O (centres unmarked) [NSC616354]

B1: isoleucyl-tRNA synthetase (IleRS) (Trypanosoma brucei brucei TREU927) (protein)
chain: T1 sequence (Q38A55 67-1143)
- Km [2]: 39.7 µM
